These results are taken from a melting point compilation (Tetko et al.).

Regarding `COC(=O)CCCCCC(=O)OC`, the melting point was -21 °C. Then `O=C(c1ccccc1)N1CCc2cc3c(cc21)CCN3C(=O)c1ccccc1`, with 293 to 294 °C; and `Cc1ccc(Oc2ccc(C)cc2)cc1`, with 51 °C. To `CCCCCCCCC=CCCCCCCCC(=O)OCC(COC(=O)CCCCCCCC=CCCCCCCCC)OC(=O)CCCCCCCC=CCCCCCCCC` (stereo not drawn) belongs -32 °C; to `Cc1ccc(C(=O)c2nn3c(nc(=O)c4ccccc43)s2)cc1`, 211 °C; to `CCCCCCCOC(C)=O`, -50.2 °C. Then `COc1cc([N+](=O)[O-])c(OC)cc1Cl`, with 144 to 145 °C.

With `CC(C(=O)O)c1ccc(-c2ccccc2)c(F)c1` (stereo not drawn), the melting point amounted to 110 °C. To `C=COC(=O)C(CC)CCCC` (stereo not drawn) belongs -90 °C; to `N#C/C(=C/c1cccnc1)c1nc(-c2ccccc2)cs1`, 164 °C. To `CC(Cc1ccccc1)NC(C#N)c1ccccc1` (stereo not drawn) belongs 85 °C. Then `N#Cc1ccc(N)c(Br)c1`, with 106 to 111 °C; and `C=CN(C)C(C)=O`, with -36 °C; and `O=C(Cl)c1ccc(-c2ncccn2)cc1`, with 172 to 175 °C. In turn, `O=C(O)CCCSSCCCC(=O)O` displayed a melting point of 105 to 110 °C.

On to `CCC=C(c1ccccc1)c1ccccc1`, for which the melting point was -1 °C. Then `NC(=S)c1cccc(F)c1`, with 110 °C; and `Cc1cc(Cl)cc([N+](=O)[O-])c1N`, with 126 to 132 °C; and `CCOC(=O)C(Cl)(Cc1cc(CC(Cl)(C(=O)OCC)C(=O)OCC)c([N+](=O)[O-])cc1[N+](=O)[O-])C(=O)OCC`, with 146 °C. Then `c1ccc(-c2nc3ccccc3nc2-c2ccc3c4c(cccc24)CC3)cc1`, with 162 °C; and `O=C1NC(=S)NC(=O)C1=Cc1ccc(Br)o1`, with 215 °C. Turning to `c1cnc2ccc3ncccc3c2c1`, the melting point amounted to 177 °C. Then `COC(=O)/C(=C/c1ccccc1)Cc1ccccc1`, with 27 to 28 °C; and `NS(=O)(=O)c1ccc(F)c(Cl)c1`, with 109 °C; and `Cc1ccc(C(O)C2C(=O)N(c3ccccc3)N=C2C(F)(F)F)cc1` (stereo not drawn), with 257 °C. Then `Cc1cc(C)c(CO)c(C)c1`, with 87 °C. In the case of `C=C1CC(=O)OC1=O`, the melting point amounted to 69 °C. Then `CCCCCCCCCCCCCCCCC(=O)OC`, with 30 °C; and `O=S(=O)(Cl)c1cccc2nsnc12`, with 148 to 150 °C. Then `CCCCC(C=O)NC(=O)C(CC(C)C)NC(=O)OCc1ccccc1` (stereo not drawn), with 60 to 75 °C; and `NNC(=O)c1ccc(-c2ccccc2F)cc1`, with 153 to 155 °C; and `CC12CCC(C1(C)C)C(CC(Br)Cc1ccccc1)(C1(CC(Br)Cc3ccccc3)C(=O)C3(C)CCC1C3(C)C)C2=O` (stereo not drawn), with 215 °C.

In the case of `CC1=CCC2C(C)(C)CCCC2(C)C12CCC(C)(CC(=O)O)O2` (stereo not drawn), the melting point worked out at 100 °C. The compound `CC(C)n1c(O)nnc1S` came in with a melting point of 167 to 170 °C. To `COC(=O)c1sccc1Br` belongs 50 to 51 °C. To `Cc1ccccc1C(N)=S` belongs 142 to 143 °C; to `Cc1nn(-c2ccccc2)nc1C(=O)Cl`, 104 to 105 °C.

Compound `CC1C2Cc3ccc(O)cc3C1(C)CCN2CCc1ccccc1` (stereo not drawn) came in with a melting point of 181 °C. Then `OCc1ccc(OCc2ccccc2)cc1`, with 86 °C; and `CC(=O)/C(=C\N)c1ccccc1`, with 97 °C; and `O=[N+]([O-])c1cccc(C=Cc2ccccc2)c1`, with 102 °C. Then `CC(C)(C)OC(=O)N1CSC[C@H]1C(=O)O`, with 132 to 136 °C; and `O=C(O)C1=CCCCC1`, with 38 °C; and `COC(=O)c1ccc(C(=O)OC)c(Br)c1`, with 52 to 54 °C. Then `CCOC(=O)c1cc2c(=O)oc3ccccc3c2n(C)c1=O`, with 202 to 203 °C; and `CC(C)(C)c1cc(C(C)(C)C)c(O)cc1O`, with 120 to 121 °C. Consider `O=C(Nc1ccc(Cl)cc1)C(Cl)=C(Cl)Cl`, for which the melting point came out at 146 °C. Then `CC(=O)N1N=C2c3ccccc3CCC2C1c1ccc(Cl)cc1` (stereo not drawn), with 182 to 183 °C; and `S=C=Nc1c(Cl)cc(Cl)cc1Cl`, with 74 to 76 °C. Compound `CCOc1ccc(CCO)cc1` returned a melting point of 42 °C.

As to `Cc1cccc(C=CC(=O)O)c1`, the melting point was in the range of 116 to 119 °C. Then `CC(=O)n1cc(C)c2ccccc21`, with 65 °C; and `FC(F)(F)c1ccccc1-n1cc[nH]c1=S`, with 236 to 238 °C; and `COc1cc(Cl)c(NC(C)=O)c(Cl)c1`, with 186 to 188 °C. `Nc1c(S(=O)(=O)c2ccccc2)csc1C(=O)O`: the melting point was in the range of 174 to 176 °C.

As to `CC(=O)C(=NNc1ccc(Br)cc1)C(C)=O`, the melting point is 132 °C.

Compound `O=C(N[C@@H](Cc1ccccc1)C(=O)O)OCC1c2ccccc2-c2ccccc21` came in with a melting point of 183 to 187 °C. Then `Sc1nc(S)nc(S)n1`, with 300 °C; and `COc1ccc(-c2occ(C(=O)c3ccccc3)c2S(=O)(=O)c2ccccc2)cc1`, with 110 °C; and `c1ccc(-c2ccc(-c3nc4ccc(-c5ccccc5)cc4o3)cc2)cc1`, with 199 to 201 °C. Turning to `O=C1C(C(O)c2ccc(Cl)cc2Cl)C(C(F)(F)F)=NN1c1ccccc1` (stereo not drawn), the melting point came out at 249 °C. Then `O=c1n(-c2ccccc2)c(=O)n2n1C1OC3c4ccccc4C1C32` (stereo not drawn), with 146 °C; and `Cc1c(N/N=C(/C(=O)c2ccc([N+](=O)[O-])cc2)S(=O)(=O)c2ccccc2)c(=O)n(-c2ccccc2)n1C`, with 135 °C; and `C=CCc1ccc(OC)c(OC)c1`, with 70 °C. Then `NNc1ccc(F)cc1F`, with 65 to 67 °C. `CCOc1ccc(-c2nnc3n2NC(c2ccc(Cl)cc2)S3)cc1` (stereo not drawn) gave a melting point of 109 °C. The compound `OC1CCOc2ccccc21` (stereo not drawn) registered a melting point of 41 to 45 °C.

The compound `OC1OC(c2ccccc2)Cc2ccccc21` (stereo not drawn) returned a melting point of 100 to 103 °C. Then `O=c1c(O)c(O)c(=O)c1=O`, with 331 to 334 °C; and `CC1(C)CC(O)CC(C)(C)N1`, with 131 °C. Then `COc1cc(C(=O)c2cccc(Br)c2)c([N+](=O)[O-])cc1OC`, with 119 °C; and `O=C1CCCc2occc21`, with 60.5 to 61.5 °C; and `Nc1ccc2oc3c(c2c1)CCCC3`, with 73 to 75 °C. In turn, `CC(C)C=CC(=O)O` returned a melting point of 35 °C.

For `c1ccc(-c2cccc3ccccc23)cc1`, the melting point stood at 45 °C. In the case of `BrC(=C(\Br)c1ccccc1)/C(Br)=C(\Br)c1ccccc1`, the melting point stood at 236 °C. Compound `COc1ccc(-c2cc(=O)c3c(O)cc(O)cc3o2)cc1` came in with a melting point of 263 °C. Then `C/C(=N/NC(N)=O)C(C)Cc1ccccc1` (stereo not drawn), with 112 °C. To `ClCc1noc(-c2ccsc2)n1` belongs 69 to 70 °C; to `CC12CCC(C(=O)C1)C2(C)C` (stereo not drawn), 186 °C. Then `Oc1ccnc(S)n1`, with 300 °C; and `ClCC1CCN(c2ncnc3ccsc23)CC1`, with 99 to 100 °C. `COC(=O)C(=Cc1ccc(O)cc1)C(=O)OC` showed a melting point of 155 to 160 °C.

In the case of `O=C(CCc1ccc(O)cc1)c1c(O)cc(O)cc1O`, the melting point was in the range of 260 to 262 °C. To `Cc1cccc(C(O)c2ccccc2)c1` (stereo not drawn) belongs 53 °C; to `Cc1cccc(C)c1NC(=O)CN1CCN(CCCC(c2ccc(F)cc2)c2ccc(F)cc2)CC1`, 159 °C. Then `COc1ccc(-c2ccc(S(=O)(=O)NCC(=O)O)cc2)cc1`, with 186 °C; and `O=C(O)C1CCC1`, with -2 °C; and `C=C1OC(=O)OC1(C)C`, with 26 to 30 °C. To `O=C(Oc1cc(Cl)cc(Cl)c1)c1ccc(C(=O)Oc2cc(Cl)cc(Cl)c2)cc1` belongs 230 °C; to `O=C1C(=Cc2ccc(-c3ccc(Cl)cc3)o2)CCC1=Cc1ccc(-c2ccc(Cl)cc2)o1`, 264 to 266 °C; to `O=C1NC(=O)C(=Cc2ccc(-c3ccc(Br)cc3)o2)C(=O)N1`, 255 °C. Compound `N=C1SCCN1CC(=O)c1ccc([N+](=O)[O-])cc1` yielded a melting point of 210 °C.

`CC(C)(C)C(O)C(Oc1ccc(-c2ccccc2)cc1)n1cncn1` (single isomer, unassigned; stereoisomer a) gave a melting point of 139 °C. To `COC(=O)c1ccc(O)c(O)c1` belongs 136 °C; to `NS(=O)(=O)c1cc2c(cc1Cl)NC(CSCC(F)(F)F)NS2(=O)=O` (stereo not drawn), 206 °C; to `NNC(=O)CC(=O)NN`, 154 °C. The compound `O=Cc1ccc(F)cc1` displayed a melting point of -10 °C. To `O=c1[nH]cc(Cl)cc1Cl` belongs 180 °C. The compound `O=CC(C=O)c1cnc2ccccc2n1` returned a melting point of 197 to 199 °C. Then `N#CCc1nc(-c2ccc3c(c2)OCCO3)cs1`, with 116 to 118 °C; and `Cc1nc(-c2ccc(C(=O)Cl)cc2)no1`, with 112 to 113 °C.

In turn, `CCOC(=O)C1=C(C)NC(=O)NC1c1ccc(Cl)cc1` (stereo not drawn) gave a melting point of 185 °C.

For `Cn1ccc2c1CC(C)(C)CC2=O`, the melting point stood at 109 °C. Then `CC1CCC2(OC1)OC1CC3C4CC=C5CC(O)CCC5(C)C4CCC3(C)C1C2C` (stereo not drawn), with 206 °C; and `CCCCC(C(=O)O)C(=O)N(Nc1ccccc1)c1ccccc1` (stereo not drawn), with 116 °C; and `CCOc1cccc(/C=C/C(=O)O)c1`, with 133 °C. Then `O=C(C1=NOC2C(=O)N(c3ccccc3[N+](=O)[O-])C(=O)C12)c1ccco1` (stereo not drawn), with 209 °C.

The melting point is the temperature of the solid-liquid transition.
